These results are taken from patent publication US6740304B2, “Receptor binding conjugates” (priority 1999, dated 2004).

This experiment concerns the target T1, folate binding protein (FBP) (Bos taurus, UniProt P02702).
T1 construct: purchased Sigma
Put plainly: Binding assay on immobilised folate binding protein (Scatchard type plot). Particulars: Scatchard type plot (FIG. 1), for the conjugate assuming at least one binding-reactive folic acid per HIgG. From the text:
Immobilised folate binding protein (FBP) was used to investigate the binding characteristics of the folic acid conjugates. FBP (Sigma) with a binding capacity of […] folic acid per milligram protein was immobilised on high protein binding 96 well EIA/RIA assay plates (Costar Corning Inc. N.Y., USA)
FBP was labelled with ^125I by the Iodogen method and the labelled protein was isolated by eluting the reaction mixture on a PD-10 column. Purified ^125I-FBP in concentrations ranging form […] in PBS were added in to the 96 well assay plates and incubated on a rotating rack at 4° C. overnight. […] The immobilised quantities of the various concentrations of quadruplicates of ^125I FBP was determined as the ratio of L3/L1+L2 after measuring the radioactivity of the respective samples by liquid scintillation counting.
Wells were incubated with a solution of FBP in PBS and washed three times with PBS after removal of the incubation mixture. […] The specifically bound fraction of folic acid was determined by a similar method as described for ^125I-FBP, correcting for the faction of ^3H-FA retained in the wells that were preincubated with folic acid. […]
The specifically bound ^3H-FA was plotted against the concentration of ^3H-FA in a Scatchard type plot (FIG. 1). […] The following values were determined from the binding assay: […]

T1 sequence (P02702 20-234): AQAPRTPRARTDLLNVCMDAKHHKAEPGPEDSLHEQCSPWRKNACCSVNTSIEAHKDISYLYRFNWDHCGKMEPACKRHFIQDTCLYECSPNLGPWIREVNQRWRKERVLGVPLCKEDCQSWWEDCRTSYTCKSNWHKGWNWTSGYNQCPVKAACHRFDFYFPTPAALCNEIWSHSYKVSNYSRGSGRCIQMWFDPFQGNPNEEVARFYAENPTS

In the case of ^3H-Folic acid [^3H-FA], the Ka is 2×10^8.
